According to patent publication US20250179052A1, “PYRIMIDINYL-OXY-QUINOLINE BASED HERBICIDAL COMPOUNDS” (SYNGENTA CROP PROTECTION AG, priority 2022, published 2025):

Columns and labels:
Details in all cases: 250 g/ha, evaluated after 13 days, five-point scale
Setaria faberi (SETFA) [1] = assay: Post-emergence herbicidal glasshouse test; type: in vivo
[2] = tested on: Ipomoea hederacea (IPOHE); assay: Pre-emergence herbicidal glasshouse test; type: in vivo
AMAPA [3] = assay: Pre-emergence herbicidal glasshouse test; type: in vivo, Amaranthus tuberculatus
Setaria faberi (SETFA) [4] = assay: Pre-emergence herbicidal glasshouse test; type: in vivo
[5] = tested on: Ipomoea hederacea (IPOHE); assay: Post-emergence herbicidal glasshouse test; type: in vivo
[6] = tested on: Echinochloa crus-galli (ECHCG); assay: Post-emergence herbicidal glasshouse test; type: in vivo
[7] = tested on: Echinochloa crus-galli (ECHCG); assay: Pre-emergence herbicidal glasshouse test; type: in vivo
[8] = tested on: Amaranthus retoflexus (AMARE); assay: Pre-emergence herbicidal glasshouse test; type: in vivo
AMAPA [9] = assay: Post-emergence herbicidal glasshouse test; type: in vivo, Amaranthus tuberculatus
[10] = tested on: Amaranthus retoflexus (AMARE); assay: Post-emergence herbicidal glasshouse test; type: in vivo

Row | SMILES | percentage damage caused to the plant, SETFA (Setaria faberi (SETFA) [1]) | percentage damage caused to the plant, IPOHE [2] | percentage damage caused to the plant, AMAPA (AMAPA [3]) | percentage damage caused to the plant, SETFA (Setaria faberi (SETFA) [4]) | percentage damage caused to the plant, IPOHE [5] | percentage damage caused to the plant, ECHCG [6] | percentage damage caused to the plant, ECHCG [7] | percentage damage caused to the plant, AMARE [8] | percentage damage caused to the plant, AMAPA (AMAPA [9]) | percentage damage caused to the plant, AMARE [10]
1 | CCOc1ncc2c(Oc3ncc(Cl)cn3)cccc2n1 [Compound 1.063, 5-(5-chloropyrimidin-2-yl)oxy-2-ethoxy-quinazoline] | 4 (4=61-80%) | 5 (5=81-100%) | 5 (5=81-100%) | 4 (4=61-80%) | 5 (5=81-100%) | 5 (5=81-100%) | 5 (5=81-100%) | 5 (5=81-100%) | 5 (5=81-100%) | 5 (5=81-100%)
2 | Cc1nc(C(F)(F)F)nc2c(C#N)ccc(Oc3ncc(Cl)cn3)c12 [Compound 1.064] | 1 (1=0-20%) | 1 (1=0-20%) | 1 (1=0-20%) | 1 (1=0-20%) | 1 (1=0-20%) | 1 (1=0-20%) | 1 (1=0-20%) | 1 (1=0-20%) | 1 (1=0-20%) | 1 (1=0-20%)
3 | Cc1ccc(Oc2ncc(Cl)cn2)c2cnc(C(F)(F)F)nc12 [Compound 1.068] | 1 (1=0-20%) | 2 (2=21-40%) | 5 (5=81-100%) | 3 (3=41-60%) | 2 (2=21-40%) | 1 (1=0-20%) | 3 (3=41-60%) | 5 (5=81-100%) | 2 (2=21-40%) | 3 (3=41-60%)
4 | Cc1nc(C(F)(F)Cl)nc2cccc(Oc3ncc(Cl)cn3)c12 [Compound 1.069] | 2 (2=21-40%) | 1 (1=0-20%) | 5 (5=81-100%) | 5 (5=81-100%) | 2 (2=21-40%) | 2 (2=21-40%) | 2 (2=21-40%) | 5 (5=81-100%) | 3 (3=41-60%) | 3 (3=41-60%)
5 | Fc1cnc(Oc2cccc3nc(C(F)(F)F)ncc23)nc1 [Compound 1.070] | 4 (4=61-80%) | 5 (5=81-100%) | 5 (5=81-100%) | 5 (5=81-100%) | 4 (4=61-80%) | 4 (4=61-80%) | 5 (5=81-100%) | 5 (5=81-100%) | 4 (4=61-80%) | 4 (4=61-80%)
6 | FC(F)(F)c1ncc2c(Oc3ncc(Cl)cn3)ccc(Br)c2n1 [Compound 1.071] | 1 (1=0-20%) | 1 (1=0-20%) | 5 (5=81-100%) | 4 (4=61-80%) | 2 (2=21-40%) | 1 (1=0-20%) | 3 (3=41-60%) | 3 (3=41-60%) | 2 (2=21-40%) | 3 (3=41-60%)
7 | Cc1nc(C(F)(F)F)nc2c(Br)ccc(Oc3ncc(Cl)cn3)c12 [Compound 1.072] | 1 (1=0-20%) | 1 (1=0-20%) | 2 (2=21-40%) | 1 (1=0-20%) | 1 (1=0-20%) | 1 (1=0-20%) | 1 (1=0-20%) | 1 (1=0-20%) | 1 (1=0-20%) | 1 (1=0-20%)
8 | Cc1ccc(Oc2ncc(Cl)cn2)c2c(C)nc(C(F)(F)F)nc12 [Compound 1.073] | 1 (1=0-20%) | 1 (1=0-20%) | 1 (1=0-20%) | 1 (1=0-20%) | 1 (1=0-20%) | 1 (1=0-20%) | 1 (1=0-20%) | 1 (1=0-20%) | 1 (1=0-20%) | 1 (1=0-20%)
